The values that follow come from patent publication US4939134A, “26-aminocholesterol and derivatives and analogs thereof in the regulation of cholesterol accumulation in body tissue” (New York University, priority 1988, dated 1990).

The test system of series [1] is HepG2 Cells. The series is described as follows: Total 125I-LDL binding to HepG2 cells. It is filed as cell-based, human. The following applies: for I-LDL BINDING: HepG2, 10 ug/ml 125I-LDL, 4 h, 4° C., n = 3, untreated 36.0; for LDL-binding (in words): HepG2 / hepatic cells. The source says:
HepG2 cells were obtained from Dr. Barbara Knowles of the Wistar Institute, Pennsylvania. The HepG2 stock monolayers were maintained under the same conditions as the fibroblast monolayers, in a medium comprising MEM supplemented with 10% heat-inactivated FBS, and 1% (v/v) each of penicillin-streptomycin solution, non-essential and essential amino acids, and L-glutamine.
For experiments using HepG2 cells, confluent stock monolayers were washed once with Dulbecco's PBS, dissociated with 0.05-0.02% trypsin-EDTA followed by treatment with deoxyribonuclease I (0.1%), and were seeded (3.0×10^6) under identical conditions. The experimental MEM contained 25% (v/v) D2 O, 9% (v/v) delipidated FBS, and 1% (v/v) each of heat-inactivated FBS, penicillin-streptomycin, essential and non-essential amino acids, L-glutamine and 20 mM HEPES.
The fibroblast and hepatoblastoma cells were cultured in media containing 25% D2 O and 1% FBS in order to determine de novo cholesterol synthesis under conditions that permit receptor mediated cholesterol transport, according to the method of Easterman & Javitt et al., J. Lipid Res., 26: 950-954 (1985). Dish cultures of each cell type were prepared, and 26-aminocholesterol, dissolved in N,N-dimethylformamide (DMF, 9 ul per dish, 0.3% v/v) was added to each culture. The cells were then grown to confluence (96 hours, day 5). […] Duplicate or triplicate dishes containing 9 ul of DMF, but without 26-aminocholesterol, were used as controls.
LDL (d, 1.019-1.03) was isolated by sequential preparative ultracentrifugation of normal human plasma, using solid KBr for density adjustment, according to the methods of Havel et al., J. Clin. Invest., 34: 1345-1353 (1955) and Radding & Steinberg, J Clin. Invest., 39: 1560-1569 (1960). The isolated LDL was then iodinated with ^125 INa by the monochloride procedure of McFarlane, Nature, 102: 53 (1958), as modified for lipoproteins according to Bilheimer et al., Biochim. Biophys. Acta. 260: 212-221 (1972). To remove free iodine, the LDL preparation was subjected to column chromatography on a Sephadex G-25M disposable mini-column (Pharmacia PD-10) and was dialized against 0.15 M NaCl and […] EDTA, pH 7.4. The specific activity of all LDL preparations ranged between 160-300 cpm/mg of LDL proteins. ^125 I-LDL was stored at 4° C. and was sterilized by filtration through a 0.45 um membrane just prior to incubation with the treated fibroblast and hepatoblastoma cell cultures and control cultures.
For binding studies, a fixed concentration of 10 ug/ml of ^125 I-LDL was added directly to the monolayers of the confluent culture medium (at or near the 96th hour) and incubation was continued for a further 4 hours at 37° C. for fibroblasts and 4° C. for HepG2 cells. After this incubation, the culture dishes were placed on ice, the medium was removed, and the cell monolayers were washed as described in Goldstein & Brown, J. Biol. Chem., 249: 5153-5162 (1974). The monolayers were then scraped off the dishes with a teflon policeman and were solubilized with 1 ml of 0.1 N NaOH.
Cell-associated radioactivity was measured in a Packard auto gamma scintillation spectrometer Model 5160, and cell protein was measured by the method of Lowry et al., J. Biol. Chem., 193: 265-275 (1951), using bovine serum albumin as a standard. Total ^125 I-LDL binding was expressed as the mass of ^125 I-LDL (mg) per mg of cell protein. […]

Series [2] has as its system DNA synthesis and cell growth. The note with it: mechanism appears independent of HMG CoA reductase activity; cited from earlier work.
The test system of series [3] is HMG CoA reductase. The series is described as follows: HMG CoA reductase activity in fibroblasts. It is filed as cell-based.
Series [4] concerns fibroblast and hepatoblastoma cells. It is filed as cell-based, human. On the procedure: Lipid Res., 26: 950-954 (1985). Dish cultures of each cell type were prepared, and 26-aminocholesterol, dissolved in N,N-dimethylformamide (DMF, 9 ul per dish, 0.3% v/v) was added to each culture. The cells were then grown to confluence (96 hours, day 5). […] Duplicate or triplicate dishes containing 9 ul of DMF, but without 26-aminocholesterol, were used as controls.

“Also recorded” adds a separate entry of the source.

Take `C[C@@H](CN)CCC[C@@H](C)[C@H]1CC[C@H]2[C@@H]3CC=C4C[C@@H](O)CC[C@]4(C)[C@H]3CC[C@]12C` [26-NH2, 26-aminocholesterol]: the “I-LDL BINDING” value in series [1] (0.156 uM) is on record as 40.9 +/- 3.1 ug LDL protein per mg cell pro; in series [1] (0.312 uM), 43.9 +/- 4.0 ug LDL protein per mg cell pro; in series [1] (0.625 uM), 52.4 +/- 8.8 ug LDL protein per mg cell pro. For the same molecule, in series [1], the “LDL-binding (in words)” value was “do not provide a similar reduction; also recorded: little or no effect; also recorded: no impact”. Moreover, in series [2], the “DNA synthesis and cell growth” value is “downregulate DNA synthesis and cell growth”. Besides, the “HMG CoA reductase activity” value in series [3] was “inhibit HMG CoA reductase activity”. The “effect on cell growth” value in series [4] is “No effect on cell growth was observed”.

Turning to `CC(CO)CCC[C@@H](C)[C@H]1CC[C@H]2[C@@H]3CC=C4C[C@@H](O)CC[C@]4(C)[C@H]3CC[C@]12C` (stereo partly shown) [26-OH, 26-hydroxycholesterol], the “I-LDL BINDING” value in series [1] (0.625 uM) is given as 53.6 +/- 1.3 ug LDL protein per mg cell pro. Further, the “LDL-binding (in words)” value in series [1] is on record as “do not provide a similar reduction”.

In the case of `CC(CS)CCC[C@@H](C)[C@H]1CC[C@H]2[C@@H]3CC=C4C[C@@H](O)CC[C@]4(C)[C@H]3CC[C@]12C` (stereo partly shown) [26-SH], the “I-LDL BINDING” value is listed as 37.8 +/- 3.4 ug LDL protein per mg cell pro in series [1] (5.0 uM), 45.8 +/- 3.9 ug LDL protein per mg cell pro in series [1] (10.0 uM) and 35.7 +/- 4.8 ug LDL protein per mg cell pro in series [1] (20.0 uM). The “LDL-binding (in words)” value in series [1] is on record as “no impact”.
